As usually defined, the IC50 is the concentration that inhibits the measured activity by half. A higher IC50 goes with a need for much substance.

We go through 21 compounds from US20070249670A1, “Glycogen Phosphorylase Inhibitor Compounds and Pharmaceutical Compositions Thereof” (SMITHKLINE BEECHAM CORPORATION, priority 2004, published 2007).

The assay has as its target T1, human liver glycogen phosphorylase a (HLGPa) (Homo sapiens, UniProt P06737).
T1 construct: creating a full-length cDNA fused at the 5′ end to codons for methionine-glycine-alanine-histidine; 6xHis tag (leader Met-Gly-Ala-His6-Gly-Gly) (N); made in house; host or cells: E. coli (bacterial expression plasmid pTXK1007LTev)
T1 sequence (P06737 2-847 limits assumed): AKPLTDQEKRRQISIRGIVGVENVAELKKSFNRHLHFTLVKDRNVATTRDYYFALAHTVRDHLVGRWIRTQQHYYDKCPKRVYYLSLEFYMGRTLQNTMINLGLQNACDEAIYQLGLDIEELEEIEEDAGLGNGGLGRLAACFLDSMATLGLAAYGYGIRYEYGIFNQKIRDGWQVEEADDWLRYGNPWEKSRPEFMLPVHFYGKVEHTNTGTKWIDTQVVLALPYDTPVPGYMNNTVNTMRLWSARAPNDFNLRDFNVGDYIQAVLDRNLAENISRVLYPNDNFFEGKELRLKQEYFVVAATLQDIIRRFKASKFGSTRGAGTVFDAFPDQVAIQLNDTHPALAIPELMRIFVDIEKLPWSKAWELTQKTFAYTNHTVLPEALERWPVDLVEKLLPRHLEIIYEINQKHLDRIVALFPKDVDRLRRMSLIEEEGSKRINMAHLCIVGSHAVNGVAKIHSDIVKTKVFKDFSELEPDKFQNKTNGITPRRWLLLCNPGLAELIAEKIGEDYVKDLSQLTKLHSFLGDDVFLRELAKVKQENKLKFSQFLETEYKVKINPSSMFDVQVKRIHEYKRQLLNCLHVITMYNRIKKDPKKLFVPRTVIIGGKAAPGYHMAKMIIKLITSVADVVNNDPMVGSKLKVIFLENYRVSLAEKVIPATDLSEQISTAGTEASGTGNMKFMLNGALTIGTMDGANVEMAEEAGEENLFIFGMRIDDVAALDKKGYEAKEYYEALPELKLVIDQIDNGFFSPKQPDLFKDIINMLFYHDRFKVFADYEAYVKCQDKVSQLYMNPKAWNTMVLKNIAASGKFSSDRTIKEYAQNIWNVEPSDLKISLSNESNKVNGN
Briefly: Human liver glycogen phosphorylase a enzymatic activity assay (coupled, fluorescent resorufin readout, with and without 10 mM glucose). Conditions: human liver glycogen phosphorylase a; table does not say whether with or without 10 mM glucose. The format is biochemical.

In turn, `CCOC(=O)C[C@H](NC(=O)c1ccc(-c2ccc(OC)cc2)cc1NC(=O)Nc1c(C)cc(C)cc1C)C(=O)O` [Example 367, (2S)-4-(ethyloxy)-2-({[4′-(methyloxy)-3-({[(2,4,6-trimethylphenyl)amino]carbonyl}amino)-4-biphenylyl]carbonyl}amino)-4-oxobutanoic acid] showed an IC50 of 0.64 µM. This lies in the sub-micromolar range.

With `CCOC(=O)C[C@H](NC(=O)c1ccc(-c2ccc(OC)cc2)cc1NC(=O)Nc1c(C)cc(Br)cc1C)C(=O)OCc1ccccc1` [Example 368, 4-ethyl 1-(phenylmethyl) N-{[3-({[(4-bromo-2,6-dimethylphenyl)amino]carbonyl}amino)-4′-(methyloxy)-4-biphenylyl]carbonyl}-L-aspartate], the IC50 turned out to be 5.58 µM.

As for `CCCc1cc(C)c(NC(=O)Nc2cc(-c3ccc(OC)cc3)ccc2C(=O)N[C@@H](CC(=O)OCC)C(=O)O)c(C)c1` [Example 369, (2S)-2-({[3-({[(2,6-dimethyl-4-propylphenyl)amino]carbonyl}amino)-4′-(methyloxy)-4-biphenylyl]carbonyl}amino)-4-(ethyloxy)-4-oxobutanoic acid], it took 0.094 µM to reach half-maximal inhibition (IC50).

In turn, `CCCc1cc(C)c(NC(=O)Nc2cc(-c3ccc(OC)cc3)ccc2C(=O)N[C@@H](CC(=O)O)C(=O)O)c(C)c1` [Example 370, N-{[3-({[(2,6-dimethyl-4-propylphenyl)amino]carbonyl}amino)-4′-(methyloxy)-4-biphenylyl]carbonyl}-L-aspartic acid] showed an IC50 of 0.002 µM.

Consider `COC(=O)[C@H](CC(=O)OC(C)(C)C)NC(=O)c1ccc(-c2ccc(OC)cc2)cc1NC(=O)Nc1c(C)cc(C)cc1C` [Example 371, 4-(1,1-dimethylethyl) 1-methyl N-{[4′-(methyloxy)-3-({[(2,4,6-trimethylphenyl)amino]carbonyl}amino)-4-biphenylyl]carbonyl}-L-aspartate], for which half-maximal inhibition (IC50) required 13.5 µM.

With `COC(=O)[C@H](CC(=O)O)NC(=O)c1ccc(-c2ccc(OC)cc2)cc1NC(=O)Nc1c(C)cc(C)cc1C` [Example 372, (3S)-4-(methyloxy)-3-({[4′-(methyloxy)-3-({[(2,4,6-trimethylphenyl)amino]carbonyl}amino)-4-biphenylyl]carbonyl}amino)-4-oxobutanoic acid], the IC50 turned out to be 0.99 µM. Against the preceding compound, the IC50 is about 14-fold lower.

For `Cc1cc(C)c(NC(=O)Nc2cc(-c3ccc(F)c(F)c3)ccc2C(=O)N[C@H](C(=O)O)[C@@H](C)OC(C)(C)C)c(C)c1` [Example 373, N-{[3′,4′-difluoro-3-({[(2,4,6-trimethylphenyl)amino]carbonyl}amino)-4-biphenylyl]carbonyl}-O-(1,1-dimethylethyl)-L-threonine], half-maximal inhibition (IC50) was put at 0.005 µM. This IC50 is about 200-fold lower than that of the compound before.

With `CCOC(=O)C[C@H](NC(=O)c1ccc(-c2ccc(F)c(F)c2)cc1NC(=O)Nc1c(C)cc(C)cc1C)C(=O)O` [Example 374, (2S)-2-({[3′,4′-difluoro-3-({[(2,4,6-trimethylphenyl)amino]carbonyl}amino)-4-biphenylyl]carbonyl}amino)-4-(ethyloxy)-4-oxobutanoic acid], the IC50 worked out at 0.82 µM.

`Cc1cc(C)c(NC(=O)Nc2cc(-c3ccc(F)c(F)c3)ccc2C(=O)N[C@@H](CC(=O)O)C(=O)O)c(C)c1` [Example 375, N-{[3′,4′-difluoro-3-({[(2,4,6-trimethylphenyl)amino]carbonyl}amino)-4-biphenylyl]carbonyl}-L-aspartic acid] returned an IC50 of 0.043 µM. This IC50 lies about 19-fold lower than the previous one.

As for `Cc1cc(C)c(NC(=O)Nc2cc(-c3ccc(F)c(F)c3)ccc2C(=O)N[C@H](CC(=O)O)C(=O)O)c(C)c1` [Example 376, N-{[3′,4′-difluoro-3-({[(2,4,6-trimethylphenyl)amino]carbonyl}amino)-4-biphenylyl]carbonyl}-D-aspartic acid], half-maximal inhibition (IC50) was put at 0.11 µM.

Regarding `COC(=O)[C@H](CC(N)=O)NC(=O)c1ccc(-c2ccc(OC)cc2)cc1NC(=O)Nc1c(C)cc(C)cc1C` [Example 377, methyl N^2-{[4′-(methyloxy)-3-({[(2,4,6-trimethylphenyl)amino]carbonyl}amino)-4-biphenylyl]carbonyl}-L-asparaginate], the IC50 stood at 9.13 µM.

The compound `COc1ccc(-c2ccc(C(=O)N[C@@H](CC(N)=O)C(=O)O)c(NC(=O)Nc3c(C)cc(C)cc3C)c2)cc1` [Example 378, N^2-{[4′-(methyloxy)-3-({[(2,4,6-trimethylphenyl)amino]carbonyl}amino)-4-biphenylyl]carbonyl}-L-asparagine] yielded an IC50 of 0.1 µM.

As for `Cc1cc(C)c(NC(=O)Nc2cc(-c3ccc(F)c(F)c3)ccc2C(=O)N[C@@H](CCC(=O)O)C(=O)O)c(C)c1` [Example 379, N-{[3′,4′-difluoro-3-({[(2,4,6-trimethylphenyl)amino]carbonyl}amino)-4-biphenylyl]carbonyl}-L-glutamic acid], the IC50 worked out at 0.084 µM. The IC50 values of the last two compounds are within 1.5-fold of each other.

Compound `COc1ccc(-c2ccc(C(=O)O)c(NC(=O)Nc3c(C)cc(C)cc3C)c2)cc1` [Example 380, 4′-(methyloxy)-3-({[(2,4,6-trimethylphenyl)amino]carbonyl}amino)-4-biphenylcarboxylic acid] registered an IC50 of 1.99 µM. Compared with the last compound, the IC50 is about 24-fold higher.

For the compound `COc1ccc(-c2ccc(C(=O)O)c(NC(=O)Nc3c(Cl)cc(OC(F)(F)F)cc3Cl)c2)cc1` [Example 381, 3-{[({2,6-dichloro-4-[(trifluoromethyl)oxy]phenyl}amino)carbonyl]amino}-4′-(methyloxy)-4-biphenylcarboxylic acid], the IC50 came out at 3.42 µM.

Compound `O=C(Nc1sc(-c2ccccc2)cc1C(=O)O)Nc1c(Cl)cccc1Cl` [Example 382, 2-({[(2,6-dichlorophenyl)amino]carbonyl}amino)-5-phenyl-3-thiophenecarboxylic acid] registered an IC50 of 1.17 µM.

For `COC(=O)[C@@H](NC(=O)c1cc(-c2ccccc2)sc1NC(=O)Nc1c(Cl)cccc1Cl)C1CCCCC1` [Example 383, methyl(2S)-cyclohexyl({[2-({[(2,6-dichlorophenyl)amino]carbonyl}amino)-5-phenyl-3-thienyl]carbonyl}amino)ethanoate], the IC50 stood at 2.37 µM.

On to `O=C(Nc1sc(-c2ccccc2)cc1C(=O)N[C@H](C(=O)O)C1CCCCC1)Nc1c(Cl)cccc1Cl` [Example 384, (2S)-cyclohexyl({[2-({[(2,6-dichlorophenyl)amino]carbonyl}amino)-5-phenyl-3-thienyl]carbonyl}amino)ethanoic acid], for which the IC50 was determined as 0.23 µM. Compared with the last compound, the IC50 is about 10-fold lower.

In turn, `O=C(Nc1cc(-c2ccc(F)cc2)sc1C(=O)O)Nc1c(Cl)cccc1Cl` [Example 385, 3-({[(2,6-dichlorophenyl)amino]carbonyl}amino)-5-(4-fluorophenyl)-2-thiophenecarboxylic acid] had an IC50 of 1.14 µM.

As for `COC(=O)[C@@H](NC(=O)c1sc(-c2ccc(F)cc2)cc1NC(=O)Nc1c(Cl)cccc1Cl)C1CCCCC1` [Example 386, methyl(2S)-cyclohexyl({[3-({[(2,6-dichlorophenyl)amino]carbonyl}amino)-5-(4-fluorophenyl)-2-thienyl]carbonyl}amino)ethanoate], the IC50 amounted to 4.3 µM.

The compound `O=C(Nc1cc(-c2ccc(F)cc2)sc1C(=O)N[C@H](C(=O)O)C1CCCCC1)Nc1c(Cl)cccc1Cl` [Example 387, (2S)-cyclohexyl({[3-({[(2,6-dichlorophenyl)amino]carbonyl}amino)-5-(4-fluorophenyl)-2-thienyl]carbonyl}amino)ethanoic acid] showed an IC50 of 0.43 µM.
